Data as given in patent publication EP1143955B1, “A COMBINATION OF FBPase INHIBITORS AND INSULIN SENSITIZERS FOR THE TREATMENT OF DIABETES” (priority 1998, dated 2000).

What was measured:
[1] = target: Mouse liver FBPase; assay: Inhibition of mouse liver FBPase (Example B); assay type: biochemical; conditions: partially purified mouse liver FBPase, assayed as for human liver FBPase
Experimental: (§1) Mouse liver FBPase was obtained by homogenizing freshly isolated mouse liver in 100 mM Tris-HCl buffer, pH 7.4, containing 1 mM EGTA, and 10% glycerol. […] This fraction was redissolved in the homogenization buffer and desalted on a PD-10 gel filtration column (Biorad) eluted with same. This partially purified fraction was used for enzyme assays.

[2] = target: human liver FBPase; assay: Inhibition of Human Liver FBPase (Example A); assay type: biochemical; conditions: […] fructose 1,6-bisphosphate, 37°C
[3] = target: rat liver FBPase; assay: Inhibition of rat liver FBPase (Example B); assay type: biochemical; conditions: assayed as for human liver FBPase
Experimental: as §1

[4] = Oral bioavailability determination by the urinary excretion method in the rat (Example G); assay type: in vivo, Sprague Dawley rats
Experimental: The oral bioavailability of prodrugs and parent compounds was determined by the urinary excretion method in the rat. Prodrugs were dissolved in 10% ethanol/90% polyethylene glycol (mw 400) and administered by oral gavage at doses of 10 to 40 mg/kg parent compound equivalents to 6-hour fasted, Sprague Dawley rats (220-240 g). Parent compounds were typically dissolved in deionized water, neutralized with sodium hydroxide, and then administered orally at 10-40 mg/kg or intravenously at ~10 mg/kg. The rats were subsequently placed in metabolic cages and urine was collected for 24 hours. The quantity of parent compound excreted into urine was determined by HPLC analysis as described in Example F. Analysis was performed as described in Example F. For prodrugs, the percentage oral bioavailability was estimated by comparison of the recovery in urine of the parent compound generated from the prodrug administered orally, to that recovered in urine following intravenous administration of the corresponding parent compound. For parent compounds, the percentage oral bioavailability was estimated by comparison of the recovery in urine of the parent compound when administered orally to that recovered when administered intravenously.

[5] = test system: ZDF rat; assay: Combination treatment in the ZDF rat - plasma insulin (Example P); assay type: in vivo, Zucker Diabetic Fatty (ZDF) rat; conditions: Troglitazone-Compound G study, final day of treatment
Experimental: Plasma was prepared by centrifugation and insulin levels then measured by means of an enzyme-linked immunoassay kit according to the instructions of the manufacturer (Amersham Life Sciences). […] Results are considered significant with p<0.05.

[6] = test system: db/db mouse; assay: Combination treatment with Troglitazone and Compound A in the db/db mouse - blood glucose (Example T); assay type: in vivo, C57BL/KsJ-db/db mice; conditions: for Blood glucose, mg/dl (8 am day 4): fed
Text: Male C57BL/KsJ-db/db mice were obtained from Jackson Laboratories (Bar Harbor, Maine) at 9 weeks of age. […] Group 1 (controls) received powdered Purina 5008 chow alone. […] This dose is reported to elicit the maximal hypoglycemic effect of Troglitazone in this model (Fujiwara et al 1995). […] Results are considered significant with p<0.05.

[7] = test system: Rat Hepatocytes; assay: Inhibition of Gluconeogenesis in Rat Hepatocytes (Example C); assay type: cell-based; conditions: glucose production from 10 mM lactate, 1 mM pyruvate, 1 hour, hepatocytes from fed Sprague-Dawley rats
Experimental: Hepatocytes (75 mg wet weight/ml) were incubated in 1 ml Krebs-bicarbonate buffer containing 10 mM Lactate, 1 mM pyruvate, 1 mg/ml BSA, and test compound concentrations from 0 to 500 µM. […] After 1 hour, an aliquot (0.25 ml) was removed, transferred to an Eppendorf tube and centrifuged. 50 µl of supernatant was then assayed for glucose content using a Sigma Glucose Oxidase kit as per the manufacturer's instructions.

[8] = test system: type 2 diabetics; conditions: most common side-effect; cited from earlier work
[9] = test system: ZDF rat; assay: Combination treatment with Troglitazone and Compound G or Compound J in the ZDF rat - blood glucose (Example N); assay type: in vivo, Zucker Diabetic Fatty (ZDF) rat; conditions: for Blood Glucose, mg/dl Day 0: Day 0 (baseline); for Blood Glucose, mg/dl Day 21: Compound J 0.4% food admixture for 21 days
Experimental: (§2) At 11 weeks of age, animals with blood glucose >500 mg/dl were selected and divided into 4 treatment groups (n=8/group). […] Blood glucose levels were measured in tail vein samples by means of a HemoCue glucose analyzer (HemoCue Inc., Mission Viejo, CA). Values are expressed as the mean plus or minus the standard error of the mean. Differences between groups were evaluated by analysis of variance with the Tukey-Kramer post hoc test.

[10] = test system: ZDF rat; assay: Combination treatment in the ZDF rat - plasma triglycerides (Example O); assay type: in vivo, Zucker Diabetic Fatty (ZDF) rat; conditions: for Plasma Triglycerides, mg/dl (Mean ± SEM): final day of treatment
Text: Results are considered significant with p<0.05.

[11] = test system: db/db mouse; assay: Combination treatment with Troglitazone and Compound G in the db/db mouse - blood glucose (Example S); assay type: in vivo; conditions: db/db mice, Troglitazone 0.1%, mean ± SEM
Text: Treatment was for 18 days. […] Results are considered significant with p<0.05.

[12] = test system: ZDF rat; assay: Combination treatment with Rosiglitazone and Compound G in the ZDF rat - blood glucose (Example R); assay type: in vivo, Zucker Diabetic Fatty (ZDF) rat; conditions: Rosiglitazone 0.0045%, Compound G 0.2% food admixture, 25 days
Experimental: as §2

[13] = test system: ZDF rat; assay: Combination treatment in the ZDF rat - blood lactate (Example Q); set-up: species or system Zucker Diabetic Fatty (ZDF) rat; conditions: in vivo
Text: Blood samples were taken from the tail vein on days 0, 3, 7, 10 and 14 of the Troglitazone-Compound G combination study and on days 0,7,14, and 21 of the Troglitazone-Compound J combination study (study protocols are described in Example N).

[14] = test system: Rat Hepatocytes; assay: Inhibition of glucose production and elevation of fructose-1,6-bisphosphate levels in rat hepatocytes (Example D); assay type: cell-based; conditions: isolated rat hepatocytes
Experimental: Hepatocytes were prepared from fed Sprague-Dawley rats (250-300 g) according to the procedure of Berry and Friend (Berry, M.N., Friend, D.S., 1969, J. Cell. Biol. 43, 506-520) as modified by Groen (Groen, A.K., Sips, H.J., Vervoom, R.C., Tager, J.M. , 1982, Eur. J. Biochem. 122, 87-93). Hepatocytes (75 mg wet weight/ml) were incubated in 1 ml Krebs-bicarbonate buffer containing 10 mM Lactate, 1 mM pyruvate, 1 mg/ml BSA, and test compound concentrations from 0 to 500 µM. Incubations were carried out in a 95% oxygen, 5% carbon dioxide atmosphere in closed, 50-ml Falcon tubes submerged in a rapidly shaking water bath (37°C). After 1 hour, an aliquot (0.25 ml) was removed, transferred to an Eppendorf tube and centrifuged. 50 µl of supernatant was then assayed for glucose content using a Sigma Glucose Oxidase kit as per the manufacturer's instructions.
Rat hepatocytes were isolated and incubated as described in Example C. Cell extracts, were analyzed for glucose content as described in Example C, and also for fructose 1,6-bisphosphate. Fructose 1,6-bisphosphate was assayed spectrophotometrically by coupling its enzymatic conversion to glycerol 3-phosphate to the oxidation of NADH, which was monitored at 340 nm. […] After a 30 minute preincubation at 37°C, 1 unit/ml of aldolase was added and the change in absorbance measured until a stable value was obtained. […]

[15] = test system: Normal Fasted Rats; assay: Glucose lowering after intraperitoneal administration to normal fasted rats (Example F); assay type: in vivo; conditions: 18-hour fasted Sprague-Dawley rats, one hour post injection
Experimental: Sprague-Dawley rats (250-300 g) were fasted for 18 hours and then dosed intraperitoneally either with saline or FBPase inhibitor. The vehicle used for drug administration was 10 mM bicarbonate. One hour post injection, rats were anesthetized with halothane, and liver and blood samples were taken and processed as described in Example E. The neutralized liver extracts were analyzed for FBPase inhibitor content by HPLC. A reverse phase YMC ODS AQ column ([…]) was used and eluted with a gradient from 10 mM sodium phosphate pH 5.5 to 75% acetonitrile. Absorbance was monitored at 310 nm. Glucose was measured in the blood sample as described in Example C. Plasma was prepared by centrifugation and extracted by addition of methanol to 60% (v/v). The methanolic extract was clarified by centrifugation and filtration and then analyzed by HPLC as described above.

[16] = Troglitazone-Compound J study, Troglitazone 0.2%, Compound J 0.4% food admixture, mean ± SEM
[17] = Troglitazone-Compound J study, Troglitazone 0.2%, mean ± SEM

For Nc1ncnc2c1ncn2[C@@H]1O[C@H](COP(=O)(O)O)[C@@H](O)[C@H]1O [AMP], which IC50 [1] is on record?
Its IC50 is 15000 nM.

And the IC50 [2]?
Its IC50 is 1300 nM.

And the IC50 [3]?
Its IC50 is 25000 nM.

Which “Oral bioavailability, %” value ([4]; estimated, urinary excretion of parent compound over 24 hours, oral 10-40 mg/kg vs intravenous ~10 mg/kg, 6-hour fasted rats) does the source give for CSc1nc(-c2ccc(P(=O)(O)O)o2)c(CC(C)C)s1 [Compound H, 2-Methylthio-5-isobutyl-4-[2-(5-phosphono)furanyl]thiazole] here?
The value was 4%.

What about the IC50 [3] of the same molecule?
Its IC50 is 175 nM.

For Cc1c(C)c2c(c(C)c1O)CCC(C)(COc1ccc(CC3SC(=O)NC3=O)cc1)O2 (centres unmarked) [Troglitazone], which “Plasma Insulin, ng/ml (Mean ± SEM)” value [5] is on record?
The value was 3.61 ± 1.03 ng/mL.

What about the “Blood glucose, mg/dl 2 pm, day 7” value ([6]; 6 hours post second dose of Compound A 250 mg/kg (Group 3) or vehicle (Group 2), food withheld) of the same molecule?
Its value is 195 ± 12.1 mg/dL.

What about the “Blood glucose, mg/dl (8 am day 4)” value ([6]; Group 2, Troglitazone 0.1% admixture) of the same molecule?
The value was 240 ± 21.3 mg/dL.

What about the “Blood glucose, mg/dl (8 am day 4)” value ([6]; Group 3, Troglitazone 0.1% admixture, before the first dose of Compound A) of the same molecule?
Its value is 237.5 ± 18.5 mg/dL.

And the “Blood glucose, mg/dl (5 pm day 4)” value ([6]; nine hours after single oral dose of Compound A 250 mg/kg (Group 3) or vehicle (Group 2), Troglitazone 0.1% admixture)?
Its value is 232.5 ± 17 mg/dL.

What about the IC50 ([7]; Rattus norvegicus, Hepatocyte) of the same molecule?
The IC50 was > 100000 nM.

And the “elevation of liver enzymes (hepatotoxicity)” value [8]?
The value was 1 % of patients.

What about the “Blood Glucose, mg/dl Day 0” value ([9]; Troglitazone-Compound G study, drugs as 0.2% food admixtures, mean ± SEM, n=8/group) of the same molecule?
The value was 655 ± 33 mg/dL.

And the “Blood Glucose, mg/dl Day 14” value ([9]; Troglitazone-Compound G study, drugs as 0.2% food admixtures for 15 days, mean ± SEM)?
The value was 431 ± 73 mg/dL.

What about the “Blood Glucose, mg/dl Day 0” value [9, 16] of the same molecule?
The value was 669 ± 23 mg/dL.

And the “Blood Glucose, mg/dl Day 21” value [9, 17]?
The value was 514 ± 135 mg/dL.

And the “Plasma Triglycerides, mg/dl (Mean ± SEM)” value ([10]; Troglitazone-Compound G study)?
Its value is 131 ± 16 mg/dL.

And the “Plasma Triglycerides, mg/dl (Mean ± SEM)” value ([10]; Troglitazone-Compound J study)?
The value was 249 ± 60 mg/dL.

And the “Blood Glucose, mg/dl Day 0” value ([11]; Day 0 (baseline), Compound G 0.4% food admixture)?
Its value is 710 ± 44 mg/dL.

And the “Blood Glucose, mg/dl Day 18” value ([11]; Compound G 0.4% food admixture for 18 days)?
Its value is 509 ± 70 mg/dL.

Which “Responders (rats whose blood glucose levels were lower on day 25 than on day 0)” value [12] does the source give for CN(CCOc1ccc(CC2SC(=O)NC2=O)cc1)c1ccccn1 (centres unmarked) [Rosiglitazone] here?
Its value is 6/10.

What does the source list for CCOC(=O)[C@H](C)NP(=O)(N[C@@H](C)C(=O)OCC)c1ccc(-c2nc(N)sc2CC(C)C)o1 [Compound J, 2-Amino-5-isobutyl-4-{2-[5-(N,N'-bis((S)-1-ethoxycarbonyl)ethyl)phosphonamido]furanyl}thiazole]?
Oral bioavailability, % ([4]; rat, in vivo, po, 24 h): 21%; blood lactate typically elevated over baseline [13]: ~ 2 fold; maximal blood lactate elevations over baseline [13]: 3 fold; Blood Glucose, mg/dl Day 0 [9, 16]: 674 ± 20 mg/dL; Blood Glucose, mg/dl Day 21 [9, 17]: 452 ± 40 mg/dL; blood glucose lowering in pilot studies (dose selection) ([9]; ZDF rat, food admixture, pilot studies): a trend (not significant) towards more pronounced blood glucose lowering at 0.4% than at 0.2%; Plasma Triglycerides, mg/dl (Mean ± SEM) ([10]; Troglitazone-Compound J study): 759 ± 76 mg/dL; elevation of plasma triglycerides ([10]; monotherapy vs control, ZDF rat): ~2 fold

Which “intracellular fructose 1,6-bisphosphate” value [14] does the source give for CCc1cc(F)c(N)c2nc(-c3ccc(P(=O)(O)O)o3)n(CC(C)C)c12 [Compound E] here?
Its value is “dose-dependent elevation of intracellular fructose 1,6-bisphosphate”.

What about the “Glucose Lowering, %” value [15] of the same molecule?
The value was 44.4%.

For CC(C)Cc1sc(N)nc1-c1ccc(P(=O)(N[C@@H](C)C(=O)OCc2ccccc2)N[C@@H](C)C(=O)OCc2ccccc2)o1 [Compound K, 2-Amino-5-isobutyl-4-[2-(5-N,N-bis(L-alanine acid dibenzyl ester)phosphonoamido)furanyl]thiazole], which IC50 [7] is on record?
The IC50 was 2100 nM.
